Experimental data reported in ChEMBL document CHEMBL1133287, “Preparation and evaluation of 1,3-diaminocyclopentane-linked dihydropyrimidinone derivatives as selective alpha1a-receptor antagonists” (Bioorg Med Chem Lett, 2000).

What was measured:
Assay type in all cases: cell-based
[1] = biological target: T1, Alpha-1D adrenergic receptor (Homo sapiens, UniProt P25100); experiment: Displacement of [125I]HEAT from human Alpha-1D adrenergic receptor stably expressed in HL cells
T1 sequence (P25100 whole entry): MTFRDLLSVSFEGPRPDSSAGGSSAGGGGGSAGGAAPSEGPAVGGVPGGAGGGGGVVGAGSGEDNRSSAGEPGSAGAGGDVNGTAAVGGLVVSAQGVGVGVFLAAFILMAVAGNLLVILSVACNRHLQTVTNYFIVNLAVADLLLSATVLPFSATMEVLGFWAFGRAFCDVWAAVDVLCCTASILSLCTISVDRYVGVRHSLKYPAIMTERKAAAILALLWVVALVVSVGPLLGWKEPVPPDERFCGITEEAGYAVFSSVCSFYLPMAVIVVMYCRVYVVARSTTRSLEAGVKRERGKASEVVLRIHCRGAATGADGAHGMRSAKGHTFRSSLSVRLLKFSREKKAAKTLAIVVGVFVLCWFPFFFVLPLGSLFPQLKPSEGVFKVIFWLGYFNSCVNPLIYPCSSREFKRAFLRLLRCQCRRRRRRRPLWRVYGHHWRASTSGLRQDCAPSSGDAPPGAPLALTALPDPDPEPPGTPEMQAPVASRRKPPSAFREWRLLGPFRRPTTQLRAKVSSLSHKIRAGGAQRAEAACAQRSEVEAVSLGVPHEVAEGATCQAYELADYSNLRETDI

[2] = biological target: T2, Alpha-1A adrenergic receptor (Homo sapiens, UniProt P35348); experiment: Displacement of [125I]HEAT from human Alpha-1A adrenergic receptor stably expressed in CHO cells
T2 sequence (P35348 whole entry): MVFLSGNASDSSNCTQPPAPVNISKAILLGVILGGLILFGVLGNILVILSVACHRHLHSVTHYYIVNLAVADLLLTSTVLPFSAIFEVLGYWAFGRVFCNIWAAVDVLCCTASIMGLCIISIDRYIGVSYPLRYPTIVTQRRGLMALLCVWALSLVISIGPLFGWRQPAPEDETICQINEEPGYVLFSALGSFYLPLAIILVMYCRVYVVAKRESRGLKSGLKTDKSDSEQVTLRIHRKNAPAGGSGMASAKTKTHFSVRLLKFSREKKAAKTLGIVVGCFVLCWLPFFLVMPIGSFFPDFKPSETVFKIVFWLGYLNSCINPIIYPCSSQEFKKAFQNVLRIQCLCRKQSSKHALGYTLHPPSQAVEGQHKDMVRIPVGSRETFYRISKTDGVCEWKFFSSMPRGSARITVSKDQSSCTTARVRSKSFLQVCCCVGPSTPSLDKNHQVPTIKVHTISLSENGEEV

[3] = biological target: T3, Alpha-1B adrenergic receptor (Homo sapiens, UniProt P35368); experiment: Displacement of [125I]HEAT from human Alpha-1B adrenergic receptor stably expressed in LM cells
T3 sequence (P35368 whole entry): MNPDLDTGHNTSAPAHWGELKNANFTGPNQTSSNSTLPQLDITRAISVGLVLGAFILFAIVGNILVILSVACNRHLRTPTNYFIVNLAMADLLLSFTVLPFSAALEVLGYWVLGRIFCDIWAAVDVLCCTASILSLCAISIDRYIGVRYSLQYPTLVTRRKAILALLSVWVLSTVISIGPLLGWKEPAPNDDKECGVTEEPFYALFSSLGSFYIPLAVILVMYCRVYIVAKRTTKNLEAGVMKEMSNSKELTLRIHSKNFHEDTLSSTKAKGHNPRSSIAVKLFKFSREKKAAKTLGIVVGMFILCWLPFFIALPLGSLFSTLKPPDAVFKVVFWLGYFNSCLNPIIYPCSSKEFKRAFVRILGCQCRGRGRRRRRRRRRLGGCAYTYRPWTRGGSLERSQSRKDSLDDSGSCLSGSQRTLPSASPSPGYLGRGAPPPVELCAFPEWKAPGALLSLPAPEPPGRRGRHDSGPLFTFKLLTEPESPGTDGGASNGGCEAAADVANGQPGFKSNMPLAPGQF

Ki [1] [µM] | Ki [2] [µM] | Ki [3] [µM] | SMILES
0.62 | 0.001 | 1.9 | COCC1=C(C(=O)OC)[C@H](c2ccc(F)c(F)c2)N(C(=O)N[C@@H]2CC[C@H](N3CCC(C#N)(c4ccccc4)CC3)C2)C(=O)N1
0.031 | 0.00046 | 0.091 | COCC1=C(C(=O)OC)[C@H](c2ccc(F)c(F)c2)N(C(=O)N[C@@H]2CC[C@@H](N3CCC(c4ccccc4C#N)CC3)C2)C(=O)N1
0.009 | 0.0048 | 0.015 | COCC1=C(C(=O)OC)[C@H](c2ccc(F)c(F)c2)N(C(=O)N[C@H]2CC[C@H](N3CCN(c4ccccc4C#N)CC3)C2)C(=O)N1
0.097 | 0.0006 | 0.07 | COCC1=C(C(=O)OC)[C@H](c2ccc(F)c(F)c2)N(C(=O)N[C@H]2CC[C@@H](N3CCC(c4ccccc4C#N)CC3)C2)C(=O)N1
0.32 | 0.0004 | 1.3 | COCC1=C(C(=O)OC)[C@H](c2ccc(F)c(F)c2)N(C(=O)N[C@@H]2CC[C@H](N3CCC(c4ccccn4)CC3)C2)C(=O)N1
0.66 | 0.0024 | 0.73 | COCC1=C(C(=O)OC)[C@H](c2ccc(F)c(F)c2)N(C(=O)N[C@H]2CC[C@@H](N3CCC(C#N)(c4ccccc4)CC3)C2)C(=O)N1
0.016 | 0.00024 | 0.13 | COCC1=C(C(=O)OC)[C@H](c2ccc(F)c(F)c2)N(C(=O)N[C@@H]2CC[C@H](N3CCC(c4ccccc4C#N)CC3)C2)C(=O)N1
0.0075 | 0.0016 | 0.028 | COCC1=C(C(=O)OC)[C@H](c2ccc(F)c(F)c2)N(C(=O)N[C@@H]2CC[C@H](N3CCN(c4ccccc4C#N)CC3)C2)C(=O)N1
0.039 | 0.00044 | 0.051 | COCC1=C(C(=O)OC)[C@H](c2ccc(F)c(F)c2)N(C(=O)N[C@H]2CC[C@@H](N3CCN(c4ccccc4C#N)CC3)C2)C(=O)N1
0.095 | 0.0023 | 0.12 | COCC1=C(C(=O)OC)[C@H](c2ccc(F)c(F)c2)N(C(=O)N[C@H]2CC[C@H](N3CCC(C#N)(c4ccccc4)CC3)C2)C(=O)N1
0.5 | 0.00038 | 0.35 | COCC1=C(C(=O)OC)[C@H](c2ccc(F)c(F)c2)N(C(=O)N[C@@H]2CC[C@@H](N3CCC(c4ccccn4)CC3)C2)C(=O)N1
0.66 | 0.00037 | 0.21 | COCC1=C(C(=O)OC)[C@H](c2ccc(F)c(F)c2)N(C(=O)N[C@@H]2CC[C@@H](N3CCC(C#N)(c4ccccc4)CC3)C2)C(=O)N1
0.011 | 0.0024 | 0.036 | COCC1=C(C(=O)OC)[C@H](c2ccc(F)c(F)c2)N(C(=O)N[C@H]2CC[C@H](N3CCC(c4ccccc4C#N)CC3)C2)C(=O)N1
0.17 | 0.0083 | 0.13 | COCC1=C(C(=O)OC)[C@H](c2ccc(F)c(F)c2)N(C(=O)N[C@H]2CC[C@H](N3CCC(c4ccccn4)CC3)C2)C(=O)N1
0.0054 | 0.0009 | 0.014 | COCC1=C(C(=O)OC)[C@H](c2ccc(F)c(F)c2)N(C(=O)N[C@@H]2CC[C@@H](N3CCN(c4ccccc4C#N)CC3)C2)C(=O)N1
0.55 | 0.0047 | 0.29 | COCC1=C(C(=O)OC)[C@H](c2ccc(F)c(F)c2)N(C(=O)N[C@H]2CC[C@@H](N3CCC(c4ccccn4)CC3)C2)C(=O)N1
